Like-named read-outs stand apart in the source and are kept apart here. A value given as a limit tells only on which side of the number the result lay.

The term IC50 denotes the concentration needed to halve the response being measured.

This assay has as its system IFNα-induced pSTAT5 (pY694) in CD3 positive cells of human whole blood. The assay is described as follows: IFNα-Induced STAT Phosphorylation in Human Whole Blood. The following applies: 1 h compound incubation, 1000 U/mL recombinant human IFNα A/D for 15 min, pSTAT5 in CD3 positive population, read-out: Human WB IFNα-Induced Stat Phosph. (IC50). The class given is cell-based. In short, it runs like this: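 Read-out is median fluorescence intensity of pSTAT5 (pY694) in the CD3-positive gate, by flow cytometry after fix/lyse and permeabilization. Before that, whole human blood anticoagulated with EDTA or ACD-A received compound for an hour and 1000 U/mL IFNα A/D for 15 min.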

Consider `[2H]C([2H])([2H])NC(=O)c1cnc(Nc2cc(C)ccn2)cc1Nc1cccc(-c2noc(COC)n2)c1OC` [Example 99], for which the IC50 (Homo sapiens) was 40 nM.
Still for that read-out and setting: then `[2H]C([2H])([2H])NC(=O)c1nnc(NC(=O)C2CC2)cc1Nc1cccc(-c2nc(CNC(C)=O)no2)c1OC` [Example 145], with 270 nM; and `[2H]C([2H])([2H])NC(=O)c1nnc(NC(=O)C2CC2)cc1Nc1cc(F)cc(-c2nc(CN3CCOCC3)no2)c1OC` [Example 230], with 510 nM.
The same measure, in the same setting: in the case of `[2H]C([2H])([2H])NC(=O)c1nnc(NC(=O)C2CC2)cc1Nc1cccc(-c2cc(C(=O)NCCC#N)n(C)n2)c1OC` [Example 477] it was 1100 nM; in that of `[2H]C([2H])([2H])NC(=O)c1nnc(NC(=O)C2CC2)cc1Nc1cccc(-c2cnn(CCN)c2)c1OC` [Example 557], 720 nM; in that of `[2H]C([2H])([2H])NC(=O)c1nnc(NC(=O)C2CC2)cc1Nc1cccc(-c2ncc(C(=O)N3CC(=O)NC(=O)C3)s2)c1OC` [Example 331], 560 nM.
On to `[2H]C([2H])([2H])NC(=O)c1nnc(NC(=O)C2CC2)cc1Nc1cccc(-c2cc(C(=O)NC3CCC(N(C)C)CC3)n(C)n2)c1OC` (centres unmarked) [Example 534], for which the 50% inhibitory concentration (IC50) (Homo sapiens) was 470 nM.
As for `[2H]C([2H])([2H])NC(=O)c1cnc(NC(=O)C2CC2)cc1Nc1cccc(-c2nc(C3(NC(C)=O)CC3)no2)c1OC` [Example 214], the IC50 (Homo sapiens) came to 390 nM.
On the same count and under the same terms, then `[2H]C([2H])([2H])NC(=O)c1nnc(NC(=O)C2CC2)cc1Nc1cccc(-c2cc(C)nn2CCN)c1OC` [Example 463], with 800 nM; and `[2H]C([2H])([2H])NC(=O)c1nnc(NC(=O)C2CC2)cc1Nc1cccc(-c2ncc(C(=O)NCC3CCCCN3C)s2)c1OC` (centres unmarked) [Example 329], with 50 nM; and `[2H]C([2H])([2H])NC(=O)c1nnc(NC(=O)C2CC2)cc1Nc1cccc(-c2nc(CN3CCN(C(=O)OC(C)(C)C)CC3=O)no2)c1OC` [Example 137], with 2640 nM.
As to `[2H]C([2H])([2H])NC(=O)c1nnc(NC(=O)C2CC2)cc1Nc1cccc(-c2ncc(C(=O)NCC(C)C)s2)c1OC` [Example 310], the half-inhibitory concentration (IC50) (Homo sapiens) is greater than 10000 nM.
For the compound `[2H]C([2H])([2H])NC(=O)c1nnc(NC(=O)C2CC2)cc1Nc1cccc(-c2ncc(C(=O)NCC(C)CN(C)C)s2)c1OC` (centres unmarked) [Example 352], the half-inhibitory concentration (IC50) (Homo sapiens) was 70 nM.
As to `[2H]C([2H])([2H])NC(=O)c1nnc(NC(=O)C2CC2)cc1Nc1cccc(-c2nc(CN3CCN(C(=O)C=C)CC3)no2)c1OC` [Example 129], under “Homo sapiens”, the IC50 is 260 nM.
The same measure, in the same setting: then `[2H]C([2H])([2H])NC(=O)c1nnc(Nc2ccc(C)nn2)cc1Nc1cccc(-c2ncc(C(=O)N(C)C)s2)c1OC` [Example 384], with 40 nM.
Still for that read-out and setting: in the case of `COc1c(Nc2cc(NC(=O)C3CC3)nnc2C(N)=O)cccc1-c1ncc(C(=O)NC2CCCCC2)s1` [Example 396] it was 120 nM; in that of `[2H]C([2H])([2H])NC(=O)c1nnc(NC(=O)C2CC2)cc1Nc1cccc(-c2cc(C(=O)NCCOC)n(C)n2)c1OC` [Example 458], 1210 nM.
`COc1c(Nc2cc(NC(=O)C3CC3)nnc2C(N)=O)cccc1-c1ncc(C(=O)N2CCC(CCO)CC2)s1` [Example 400]: the IC50 (Homo sapiens) stood at 30 nM.
Still for that read-out and setting: then `[2H]C([2H])([2H])NC(=O)c1nnc(NC(=O)C2CC2)cc1Nc1cccc(-c2noc(CN3CCCC3=O)n2)c1OC` [Example 79], with 160 nM.
In the case of `[2H]C([2H])([2H])NC(=O)c1nnc(Nc2cc(C)n(C)n2)cc1Nc1cc(F)cc(-c2cc(C(=O)NS(C)(=O)=O)n(C)n2)c1OC` [Example 552], the IC50 (Homo sapiens) was 3600 nM.
With `[2H]C([2H])([2H])NC(=O)c1nnc(NC(=O)C2CC2)cc1Nc1cccc(-c2noc(C(=O)N(C)C)n2)c1OC` [Example 17], the IC50 (Homo sapiens) came out at 490 nM.
Take `[2H]C([2H])([2H])NC(=O)c1nnc(NC(=O)C2CC2)cc1Nc1cccc(-c2nc(CC(C)C)no2)c1OC` [Example 122]: the IC50 (Homo sapiens) is greater than 10000 nM.
As to `[2H]C([2H])([2H])NC(=O)c1nnc(NC(=O)C2CC2)cc1Nc1cccc(-c2nc(C)c(C(=O)N3CCS(=O)(=O)CC3)s2)c1OC` [Example 372], the IC50 (Homo sapiens) stood at 150 nM.
Regarding `[2H]C([2H])([2H])NC(=O)c1nnc(NC(=O)C2CC2)cc1Nc1cccc(-c2nc([C@@H](C)NS(C)(=O)=O)no2)c1OC` [Example 195], the IC50 (Homo sapiens) was 720 nM.
For `COc1c(Nc2cc(NC(=O)C3CC3)nnc2C(N)=O)cccc1-c1noc(CN(C2CC2)S(C)(=O)=O)n1` [Example 60], the half-maximal inhibitory concentration (IC50) (Homo sapiens) worked out at 23 nM.
The same measure, in the same setting: then `[2H]C([2H])([2H])NC(=O)c1nnc(NC(=O)C2CC2)cc1Nc1cccc(-n2cc(CN3CCOCC3)nn2)c1OC` [Example 2], with 650 nM; and `[2H]C([2H])([2H])NC(=O)c1nnc(NC(=O)C2CC2)cc1Nc1cccc(-c2nc([C@@H](CO)NC(C)=O)no2)c1OC` [Example 220], with 200 nM; and `[2H]C([2H])([2H])NC(=O)c1nnc(NC(=O)C2CC2)cc1Nc1cccc(-c2nc(CN3CCN(C(=O)C4(C#N)CC4)CC3)no2)c1OC` [Example 133], with 100 nM.
The same measure, in the same setting: then `[2H]C([2H])([2H])NC(=O)c1nnc(NC(=O)C2CC2)cc1Nc1cccc(-c2noc(CN3CCCS3(=O)=O)n2)c1OC` [Example 76], with 30 nM; and `COc1c(Nc2cc(NC(=O)C3CC3)nnc2C(N)=O)cccc1-c1ncc(C(=O)N2CCOCC2)o1` [Example 414], with 310 nM.
Regarding `[2H]C([2H])([2H])NC(=O)c1cnc(NC(=O)C2CC2)cc1Nc1cccc(-c2noc(CCOC)n2)c1OC` [Example 90], the IC50 (Homo sapiens) was 60 nM.
On the same count and under the same terms, in the case of `[2H]C([2H])([2H])NC(=O)c1nnc(NC(=O)C2CC2)cc1Nc1cc(F)cc(-c2cc(C(=O)N(C)C(C)C)n(C)n2)c1OC` [Example 506] it was 250 nM; in that of `[2H]C([2H])([2H])NC(=O)c1nnc(NC(=O)C2CC2)cc1Nc1cccc(-c2ncc(C(=O)Nc3ccc(OC)cc3)s2)c1OC` [Example 296], greater than 10000 nM.
The same measure, in the same setting: then `[2H]C([2H])([2H])NC(=O)c1nnc(NC(=O)C2CC2)cc1Nc1cccc(-c2ncc(C(=O)N3CCC(N4CCCCC4)CC3)s2)c1OC` [Example 351], with 60 nM; and `[2H]C([2H])([2H])NC(=O)c1nnc(NC(=O)C2CC2)cc1Nc1cccc(-c2noc(CCS(C)(=O)=O)n2)c1OC` [Example 78], with 70 nM; and `COc1c(Nc2cc(N)nnc2C(N)=O)cccc1-c1noc(C(=O)NCCC2CCCN2C)n1` (centres unmarked) [Example 115], with 3490 nM.
Consider `[2H]C([2H])([2H])NC(=O)c1nnc(NC(=O)C2CC2)cc1Nc1cccc(-c2noc(CC(=O)N3CCOCC3)n2)c1OC` [Example 23], for which the IC50 (Homo sapiens) came to 60 nM.
With `[2H]C([2H])([2H])NC(=O)c1nnc(NC(=O)C2CC2)cc1Nc1cccc(-c2ncc(C(=O)N3CCN(S(=O)(=O)C=C)CC3)s2)c1OC` [Example 241], under “Homo sapiens”, the half-maximal inhibitory concentration (IC50) is 620 nM.
On the same count and under the same terms, then `[2H]C([2H])([2H])NC(=O)c1nnc(NC(=O)C2CC2)cc1Nc1cccc(-c2cn(CCN3CCOCC3)nn2)c1OC` [Example 422, 6-(cyclopropanecarboxamido)-4-((2-methoxy-3-(1-(2-morpholinoethyl)-1H-1,2,3-triazol-4-yl)phenyl)amino)-N-(methyl-d3)pyridazine-3-carboxamide], with 590 nM; and `[2H]C([2H])([2H])NC(=O)c1nnc(NC(=O)C2CC2)cc1Nc1cccc(-c2ncc(C(=O)NC(C)(C)C)s2)c1OC` [Example 309], with greater than 10000 nM.
Regarding `CCN(CC)C1CCC(NC(=O)c2cnc(-c3cccc(Nc4cc(NC(=O)C5CC5)nnc4C(N)=O)c3OC)s2)CC1` (centres unmarked) [Example 397], where the note is “Homo sapiens”, the IC50 was 40 nM.
With `[2H]C([2H])([2H])NC(=O)c1cnc(NC(=O)C2CC2)cc1Nc1cccc(-c2ncc(C(C)(C)O)s2)c1OC` [Example 270], the IC50 (Homo sapiens) was 100 nM.
As to `[2H]C([2H])([2H])NC(=O)c1nnc(NC(=O)C2CC2)cc1Nc1cccc(-c2ncc(CC(=O)NCCC3CCCN3C)s2)c1OC` (centres unmarked) [Example 254], the IC50 (Homo sapiens) amounted to 5430 nM.
On to `[2H]C([2H])([2H])NC(=O)c1cnc(NC(=O)C2CC2)cc1Nc1cccc(-c2ccn(CCNC(=O)COC)n2)c1OC` [Example 472], for which the half-maximal inhibitory concentration (IC50) was found to be 290 nM.
Turning to `[2H]C([2H])([2H])NC(=O)c1nnc(NC(=O)C2CC2)cc1Nc1cccc(-c2noc(CN3CCN(S(C)(=O)=O)CC3)n2)c1OC` [Example 15], for the setting “Homo sapiens”, the IC50 was 30 nM.
On to `[2H]C([2H])([2H])NC(=O)c1nnc(NC(=O)C2CC2)cc1Nc1cccc(-c2nc(CO)no2)c1OC` [Example 174], for which the IC50 (Homo sapiens) was determined as 560 nM.
`[2H]C([2H])([2H])NC(=O)c1nnc(NC(=O)C2CC2)cc1Nc1cccc(-c2ncc(C(=O)N3CCNC(=O)C3C)s2)c1OC` (centres unmarked) [Example 336]: under “Homo sapiens”, the IC50 turned out to be 260 nM.
In the case of `[2H]C([2H])([2H])NC(=O)c1nnc(NC(=O)C2CC2)cc1Nc1cccc(-c2cc(C)n(CCN)n2)c1OC` [Example 462], for the setting “Homo sapiens”, the IC50 turned out to be 4450 nM.
Still for that read-out and setting: in the case of `[2H]C([2H])([2H])NC(=O)c1nnc(NC(=O)C2CC2)cc1Nc1cccc(-c2ncc(C(=O)N3CCN(C(C)C)CC3)s2)c1OC` [Example 295] it was 60 nM.
Still for that read-out and setting: then `[2H]C([2H])([2H])NC(=O)c1nnc(NC(=O)C2CC2)cc1Nc1cc(F)cc(-c2cc(C(=O)N3CCC(N(C)C)CC3)n(C)n2)c1OC` [Example 515], with 290 nM.
With `[2H]C([2H])([2H])NC(=O)c1nnc(NC(=O)C2CC2)cc1Nc1cccc(-c2ncc(C(=O)N3C[C@@H](C)O[C@@H](C)C3)s2)c1OC` [Example 275], the 50% inhibitory concentration (IC50) (Homo sapiens) was 150 nM.
In the case of `[2H]C([2H])([2H])NC(=O)c1nnc(Nc2ccc(C)nn2)cc1Nc1cccc(-c2ncc(C(C)O)s2)c1OC` (centres unmarked) [Example 392], the half-maximal inhibitory concentration (IC50) (Homo sapiens) amounted to 23 nM.
With `[2H]C([2H])([2H])NC(=O)c1cnc(NC(=O)C2CC2)cc1Nc1cccc(-c2ccn(CCNC(=O)COC)n2)c1OC` [Example 473], the 50% inhibitory concentration (IC50) is greater than 10000 nM.

(Values after US12240840B2, “Amide-substituted heterocyclic compounds for the treatment of conditions related to the modulation of IL-12, IL-23 and/or IFN-alpha” (BRISTOL-MYERS SQUIBB COMPANY, priority 2018, dated 2025).)
